{
  "source": "patent US8501183B2",
  "about": "“Immunogenic compositions and diagnostic and therapeutic uses thereof” (The Walter and Eliza Hall Institute of Medical Research, priority 2002, dated 2013)",
  "key": {"[1]": {"assay": "Competition / PI-specific ELISA, epitope mapping of anti-GPI antibodies", "format": "binding", "settings": "sera of mice immunized with free GPI", "experimental": "Coupling of the purified GPI glycan to proteins was undertaken as above. To measure anti-lipid reactivities, we utilized commercially available phosphatidylinositol from Sigma with identical composition to the malarial GPI, namely dipalmitoyl-PI. 2 mg PI was coupled to defatted BSA according to published protocols (Bate, C. A. W., Taverne, J., Kwiatkowski, D., and Playfair, J. H. L. (1993) Immunology 79:138-145).\nFrom a 1/32 dilution, sera or mAbs were titrated two-fold in 1% BSA in PBS, 0.05% Tween-20, and pre-incubated for 4 hours at room temperature with a molar excess of competitior (20 μg/ml PI, or phosphatidylserine (PS), or diluent alone). Antigen (BSA-PI or BSA alone) at 20 μg/ml in phosphate binding buffer was incubated overnight in 50 μl volumes in flat-bottomed Immunlon 96-well plates, followed by extensive washing with buffer. The plates were blocked with 1% BSA in PBS for several hours. 50 μl aliquots of titrated antibody with or without competitor were incubated in triplicate for 2 hours at room temperature, followed by extensive washing with 1% BSA 0.05% Tween-20 in PBS. An aliquot of affinity purified, biotin-labelled isotype specific goat anti-mouse second antibody was incubated as above, followed by further washing and the addition of streptavidin-alkaline phosphatase. […] Background binding to BSA-coated plates was determined in parallel. […]"}, "P. berghei ANKA": {"test_system": "P. berghei ANKA", "assay": "P. berghei ANKA cerebral malaria challenge of immunized mice", "format": "in vivo, C57Bl/6 mice", "text": "Mice were immunized by three successive boosts of free intact malarial GPI emulsified in Incomplete Freund's Adjuvant spaced two weeks apart. Control mice received an equal amount of IFA alone. After immunization, sera were bled and the titres of anti-GPI antibodies determined by ELISA. All animals immunized with GPI developed broadly similar levels of anti-GPI antibodies (range 1/1024-1/4096) among individual animals. […] Two weeks after the final boost mice were challenged with P. berghei ANKA. Parasitaemia, the development of neurological complications, and mortality were recorded daily. No difference in parasitaemia was observed. In the control group, 100% of animal manifested between day 5 and 9 an aggressive cerebral syndrome with neurological signs proceeding to rapid death with 12 hours. […]\nThe P. berghei ANKA murine cerebral malaria model has many features in common with the human cerebral malaria syndrome. […] Parasitaemia, the development of neurological complications, and mortality were recorded daily. […]"}, "[2]": {"format": "in vivo, C3H/HeJ and C57B16 mice", "settings": "primed with 20 mg D-galactosamine, agent after 1 hour", "experimental": "In addition a standard murine model of TNF-driven lethality was used to determine whether GPI mediates parasite-induced acute toxic shock. This model manifests disseminated intravascular coagulation, peripheral vascular failure and shock, and thus has clinical features in common with the human “algid malaria” syndrome. LPS-non-responsive C3H/HeJ and C57B16 mice were primed with 20 mg D-galactosamine followed after 1 hour by purified GPI, PE or PBS alone."}, "[3]": {"assay": "ELISA titres of anti-GPI antibodies in sera of immunized mice", "format": "in vivo", "settings": "mice immunized with free GPI in IFA", "experimental": "Antigen (GPI-OVA, Glycan-OVA, BSA-PI, OVA or BSA alone) at 20 μg/ml in phosphate binding buffer was incubated overnight in 50 μl volumes in flat-bottomed Immunlon 96-well plates, followed by extensive washing with buffer. The plates were blocked with 1% BSA, 1% OVA in PBS for several hours. From a 1/32 dilution, sera were titrated two-fold in 1% BSA, 1% OVA in PBS, and 50 μl aliquots incubated in triplicate for 2 hours at room temperature, followed by extensive washing with 1% BSA, 1% OVA 0.05% Tween-20 in PBS. An aliquot of affinity purified, biotin-labelled isotype specific goat anti-mouse second antibody was incubated as above, followed by further washing and the addition of streptavidin-alkaline phosphatase. After 30 minutes the plates were washed again and colourimetric development initiated by the addition of p-Nitrophenylphosphate in diethanolamine buffer. Background binding to BSA/OVA-coated plates was determined in parallel. […]\nMice were immunized by three successive boosts of free intact malarial GPI emulsified in Incomplete Freund's Adjuvant spaced two weeks apart. […] After immunization, sera were bled and the titres of anti-GPI antibodies determined by ELISA. […] Parasitaemia, the development of neurological complications, and mortality were recorded daily. […]"}, "[4]": {"assay": "IgG response of mice immunized with synthetic GPI glycan conjugate", "format": "in vivo", "settings": "rodents", "experimental": "All experiments were in accordance with local Animal Ethics Committee regulations. Young adult C57BL6 mice from Jackson Laboratories were pre-bled and inoculated with 6.5 μg KLH-glycan (0.176 μg glycan, n=16) or KLH-cysteine (sham-immunized, n=24) emulsified in Freund's Complete Adjuvant, and boosted with equal amounts of immunogen in Incomplete Freund's Adjuvant at 2 weekly intervals. After two boosts they were rested and injected i.p with 1×10^6 P. berghei ANKA-infected erythrocytes. Naïve mice (n=12) served as unimmunized controls. Parasitemias were assessed from Giemsa-stained thin films. Mortality was checked twice daily. Mice were judged as developing cerebral malaria if displaying neurological signs such as loss of reflex or ataxia, and dying between days 5 to 12 post-infection with relatively low parasitemia levels (below 15%). Differences in survival curves of P. berghei infected mice across this time-period were assessed by Cox-Mantel logrank transformation on Kaplan-Meier plots. Deaths from day 14 onwards with high parasitaemia (>60%) and low rates of cerebral vascular occlusion were ascribed to hyperparasitaema/haemolysis, and all animals failing to develop cerebral malaria eventually succumbed to this syndrome.\nThe synthetic malarial GPI glycan was immunogenic in rodents. […] No reactivity to GPI glycan was detected in pre-immune sera or in animals receiving sham-conjugated KLH. […]"}, "[5]": {"test_system": "anti-Glycan antibodies in human serum", "assay": "ELISA of human serum against synthetic glycan antigen", "format": "binding", "settings": "serum of a malaria-exposed Papua New Guinean donor; BSA-conjugated glycan"}, "[6]": {"test_system": "human antibody responses to the native GPI toxin", "assay": "Competition ELISA, synthetic glycan vs GPI", "format": "binding", "settings": "competitor in molar excess"}},
  "data": [
    {"substance": "NH—CH2—CH2—PO4-(Manα1-2)-6Manα1-2Manα1-6Manα1-4GlcN-H2α1-6(myristoyl)-myo-Inositol-1-PO4-dipalmitoylglycerol [free GPI]", "values": [
      {"measurement": "epitope specificity of the antibody response", "setting": "[1]", "result": "directed predominantly towards the lipidic (phosphatidylinositol, PI) domain of the molecule"},
      {"measurement": "parasitaemia", "setting": "P. berghei ANKA; after P. berghei ANKA challenge two weeks after final boost, vs control groups", "result": "No difference"},
      {"measurement": "rate of deaths", "setting": "P. berghei ANKA; free GPI in IFA vs IFA alone, P. berghei ANKA challenge", "result": "noticeable faster rate"},
      {"measurement": "recipients with lethal shock", "setting": "[2]", "result": 100, "unit": "%"},
      {"measurement": "isotype of the anti-GPI response", "setting": "[3]", "result": "predominantly IgM"}
    ]},
    {"substance": "NH2—CH2—CH2—PO4-(Manα1-2)6Manα1-2Manα1-6Manα1-4GlcNH2α1-6myo-Insositol-1,2 cyclic phosphate [synthetic GPI glycan]", "values": [
      {"measurement": "immunogenicity", "setting": "[4]", "result": "immunogenic"},
      {"measurement": "detection of antibodies in human serum", "setting": "[5]", "result": "able specifically to detect anti-Glycan antibodies in human serum"},
      {"measurement": "competition of human antibody responses to native GPI", "setting": "[6]", "result": "compete out the majority of human antibody responses to the native GPI toxin"}
    ]}
  ]
}
